# Laboratory results as given in ChEMBL document CHEMBL5325446, “Design and synthesis of proteolysis-targeting chimeras (PROTACs) as degraders of glutathione peroxidase 4” (Bioorg Med Chem, 2023).
# Active and inactive are the calls of the source. No cut-off for these calls is given here.
# Key:
# [1] = molecular target: von Hippel-Lindau disease tumor suppressor/Phospholipid hydroperoxide glutathione peroxidase GPX4 (Homo sapiens) (UniProt P40337+P36969); assay: PROTAC activity at VHL/GPX4 in human MGC-803 cells assessed as induction of GPX4 degradation at 10 uM incubated for 24 hrs by Western blot analysis; assay type: cell-based
# [2] = molecular target: Protein cereblon/Phospholipid hydroperoxide glutathione peroxidase GPX4 (Homo sapiens) (UniProt Q96SW2+P36969); assay: PROTAC activity at CRBN/GPX4 in human MGC-803 cells assessed as induction of GPX4 degradation at 10 uM incubated for 24 hrs by Western blot analysis; assay type: cell-based
# HT-1080 [3] = assay: Cytotoxicity against human HT-1080 cells assessed as cell growth inhibition incubated for 48 hrs by CCK-8 assay; assay type: functional, cell-based; details: HT-1080, 48 h
# HT-1080 [4] = assay: Induction of ferroptosis in human HT-1080 cells assessed as […] accumulation at 10 uM incubated for 12 hrs by C11-BODIPY staining based flow cytometry analysis; assay type: functional, cell-based
# HT-1080 [5] = assay: Induction of ferroptosis in human HT-1080 cells assessed as […] accumulation at 10 uM incubated for 24 hrs by C11-BODIPY staining based flow cytometry analysis; assay type: functional, cell-based
# Sequence of von Hippel-Lindau disease tumor suppressor/Phospholipid hydroperoxide glutathione peroxidase GPX4 (Homo sapiens) (P36969 whole entry, looked up): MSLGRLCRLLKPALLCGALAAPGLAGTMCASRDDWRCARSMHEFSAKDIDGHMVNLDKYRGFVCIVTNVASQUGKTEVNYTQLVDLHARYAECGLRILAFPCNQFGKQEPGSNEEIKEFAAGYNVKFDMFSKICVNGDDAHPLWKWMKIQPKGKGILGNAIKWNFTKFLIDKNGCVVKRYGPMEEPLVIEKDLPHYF
# Sequence of von Hippel-Lindau disease tumor suppressor/Phospholipid hydroperoxide glutathione peroxidase GPX4 (Homo sapiens) (P40337 whole entry, looked up): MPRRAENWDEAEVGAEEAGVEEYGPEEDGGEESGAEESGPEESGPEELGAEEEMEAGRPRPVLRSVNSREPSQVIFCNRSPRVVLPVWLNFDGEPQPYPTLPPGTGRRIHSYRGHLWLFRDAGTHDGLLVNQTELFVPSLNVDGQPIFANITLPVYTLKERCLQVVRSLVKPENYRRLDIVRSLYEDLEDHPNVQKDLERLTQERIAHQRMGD
# Sequence of Protein cereblon/Phospholipid hydroperoxide glutathione peroxidase GPX4 (Homo sapiens) (P36969 whole entry, looked up): as the sequence (P36969 whole entry, looked up) above
# Sequence of Protein cereblon/Phospholipid hydroperoxide glutathione peroxidase GPX4 (Homo sapiens) (Q96SW2 whole entry, looked up): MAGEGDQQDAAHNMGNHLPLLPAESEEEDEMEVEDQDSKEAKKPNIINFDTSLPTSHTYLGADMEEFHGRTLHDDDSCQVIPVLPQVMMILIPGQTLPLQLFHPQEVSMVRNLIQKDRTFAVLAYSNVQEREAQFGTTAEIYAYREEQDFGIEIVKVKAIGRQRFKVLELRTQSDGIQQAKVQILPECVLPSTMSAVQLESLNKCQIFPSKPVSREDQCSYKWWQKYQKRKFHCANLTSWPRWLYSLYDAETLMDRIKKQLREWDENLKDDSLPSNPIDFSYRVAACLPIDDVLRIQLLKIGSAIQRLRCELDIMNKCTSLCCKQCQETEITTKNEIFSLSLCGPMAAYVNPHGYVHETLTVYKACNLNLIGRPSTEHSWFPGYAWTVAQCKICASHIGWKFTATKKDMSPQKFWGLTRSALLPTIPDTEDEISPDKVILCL
Activity [1] [%],Activity [2] [%],Structure (SMILES),other results
< 10,–,O=C(Cn1cc(COc2cccc3c2C(=O)N(C2CCC(=O)NC2=O)C3=O)nn1)NCCCCC(=O)Nc1ccc(N(C(=O)CCl)C(C(=O)NCCc2ccccc2)c2cccs2)cc1 (centres undefined),–
–,< 10,O=C(CCOCCNc1cccc2c1C(=O)N(C1CCC(=O)NC1=O)C2=O)NCCCCC(=O)Nc1ccc(N(C(=O)CCl)C(C(=O)NCCc2ccccc2)c2cccs2)cc1 (centres undefined),–
–,30.1,O=C(CCOCCNc1cccc2c1C(=O)N(C1CCC(=O)NC1=O)C2=O)NCCOCCC(=O)Nc1ccc(N(C(=O)CCl)C(C(=O)NCCc2ccccc2)c2cccs2)cc1 (centres undefined),IC50 (HT-1080 [3]): 29.2 µM
–,< 10,O=C1CCC(N2C(=O)c3cccc(NCCOCCOCCOCCC(=O)N4CCN(CC(=O)Nc5ccc(N(C(=O)CCl)C(C(=O)NCCc6ccccc6)c6cccs6)cc5)CC4)c3C2=O)C(=O)N1 (centres undefined),–
–,18.2,O=C1CCC(N2C(=O)c3cccc(NCCOCCOCCC(=O)N4CCN(CC(=O)Nc5ccc(N(C(=O)CCl)C(C(=O)NCCc6ccccc6)c6cccs6)cc5)CC4)c3C2=O)C(=O)N1 (centres undefined),–
–,< 10,O=C(CCOCCNc1cccc2c1C(=O)N(C1CCC(=O)NC1=O)C2=O)NC(=O)Nc1ccc(N(C(=O)CCl)C(C(=O)NCCc2ccccc2)c2cccs2)cc1 (centres undefined),–
–,18,O=C(CCOCCNc1cccc2c1C(=O)N(C1CCC(=O)NC1=O)C2=O)NCCCCCC(=O)Nc1ccc(N(C(=O)CCl)C(C(=O)NCCc2ccccc2)c2cccs2)cc1 (centres undefined),IC50 (HT-1080 [3]): 31.8 µM
–,19.9,O=C1CCC(N2C(=O)c3cccc(NCCOCCOCCOCCOCCC(=O)N4CCN(CC(=O)Nc5ccc(N(C(=O)CCl)C(C(=O)NCCc6ccccc6)c6cccs6)cc5)CC4)c3C2=O)C(=O)N1 (centres undefined),–
–,33,O=C1CCC(N2C(=O)c3cccc(NCCOCCC(=O)N4CCN(CC(=O)Nc5ccc(N(C(=O)CCl)C(C(=O)NCCc6ccccc6)c6cccs6)cc5)CC4)c3C2=O)C(=O)N1 (centres undefined),IC50 (HT-1080 [3]): 11.7 µM; Activity (HT-1080 [4]): Active; Activity (HT-1080 [5]): Active
–,< 10,O=C(CCOCCNc1cccc2c1C(=O)N(C1CCC(=O)NC1=O)C2=O)NCCC(=O)Nc1ccc(N(C(=O)CCl)C(C(=O)NCCc2ccccc2)c2cccs2)cc1 (centres undefined),–
–,< 10,O=C1CCC(N2C(=O)c3cccc(OCC(=O)Nc4ccc(N(C(=O)CCl)C(C(=O)NCCc5ccccc5)c5cccs5)cc4)c3C2=O)C(=O)N1 (centres undefined),IC50 (HT-1080 [3]): 11.9 µM; Activity (HT-1080 [4]): Active; Activity (HT-1080 [5]): Active
–,33.8,O=C(CCOCCNc1cccc2c1C(=O)N(C1CCC(=O)NC1=O)C2=O)NCCCC(=O)Nc1ccc(N(C(=O)CCl)C(C(=O)NCCc2ccccc2)c2cccs2)cc1 (centres undefined),IC50 (HT-1080 [3]): 37.7 µM
–,< 10,O=C1CCC(N2C(=O)c3cccc(OCC(=O)N4CCN(CC(=O)Nc5ccc(N(C(=O)CCl)C(C(=O)NCCc6ccccc6)c6cccs6)cc5)CC4)c3C2=O)C(=O)N1 (centres undefined),–
–,< 10,O=C(CCOCCNc1cccc2c1C(=O)N(C1CCC(=O)NC1=O)C2=O)NCCCCCCC(=O)Nc1ccc(N(C(=O)CCl)C(C(=O)NCCc2ccccc2)c2cccs2)cc1 (centres undefined),–

# The remaining lines, values behind:
Structure (SMILES),Activity [1] [%],Activity [2] [%],other results
COc1ccc(N(C(=O)CCl)C(C(=O)NCCc2ccccc2)c2ccc(NC(=O)CCOCCOCCOCCNc3cccc4c3C(=O)N(C3CCC(=O)NC3=O)C4=O)cc2)cc1Cl (centres undefined),< 10,–,–
O=C(CCOCCNc1cccc2c1C(=O)N(C1CCC(=O)NC1=O)C2=O)NCCOCCOCCC(=O)Nc1ccc(N(C(=O)CCl)C(C(=O)NCCc2ccccc2)c2cccs2)cc1 (centres undefined),–,< 10,–
Cc1ncsc1-c1ccc([C@H](C)NC(=O)[C@@H]2C[C@@H](O)CN2C(=O)[C@@H](NC(=O)CCCCCCC(=O)Nc2ccc(N(C(=O)CCl)C(C(=O)NCCc3ccccc3)c3cccs3)cc2)C(C)(C)C)cc1 (some centres undefined),45,–,Activity (HT-1080 [4]): inactive; Activity (HT-1080 [5]): Active
COc1ccc(N(C(=O)CCl)C(C(=O)NCCc2ccccc2)c2ccc(NC(=O)CCOCCNc3cccc4c3C(=O)N(C3CCC(=O)NC3=O)C4=O)cc2)cc1Cl (centres undefined),28.7,–,–
Cc1ncsc1-c1ccc([C@H](C)NC(=O)[C@@H]2C[C@@H](O)CN2C(=O)[C@@H](NC(=O)CCCCC(=O)N2CCN(CC(=O)Nc3ccc(N(C(=O)CCl)C(C(=O)NCCc4ccccc4)c4cccs4)cc3)CC2)C(C)(C)C)cc1 (some centres undefined),< 10,–,–
Cc1ncsc1-c1ccc([C@H](C)NC(=O)[C@@H]2C[C@@H](O)CN2C(=O)[C@@H](NC(=O)CCCCCCCCC(=O)Nc2ccc(N(C(=O)CCl)C(C(=O)NCCc3ccccc3)c3cccs3)cc2)C(C)(C)C)cc1 (some centres undefined),28.6,–,–
Cc1ncsc1-c1ccc([C@H](C)NC(=O)[C@@H]2C[C@@H](O)CN2C(=O)[C@@H](NC(=O)CCCCC(=O)Nc2ccc(N(C(=O)CCl)C(C(=O)NCCc3ccccc3)c3cccs3)cc2)C(C)(C)C)cc1 (some centres undefined),< 10,–,–
O=C(CCOCCNc1cccc2c1CN(C1CCC(=O)NC1=O)C2=O)NCCC(=O)Nc1ccc(N(C(=O)CCl)C(C(=O)NCCc2ccccc2)c2cccs2)cc1 (centres undefined),–,< 10,–
O=C(CCOCCOCCNc1cccc2c1C(=O)N(C1CCC(=O)NC1=O)C2=O)NCCOCCC(=O)Nc1ccc(N(C(=O)CCl)C(C(=O)NCCc2ccccc2)c2cccs2)cc1 (centres undefined),–,16.4,–
COc1ccc(N(C(=O)CCl)C(C(=O)NCCc2ccccc2)c2ccc(NC(=O)CCOCCNC(=O)CCOCCNc3cccc4c3C(=O)N(C3CCC(=O)NC3=O)C4=O)cc2)cc1Cl (centres undefined),39.2,–,IC50 (HT-1080 [3]): 13 µM
C=C(F)C(=O)N(c1ccc(NC(=O)CCOCCNC(=O)CCOCCNc2cccc3c2C(=O)N(C2CCC(=O)NC2=O)C3=O)cc1)C(C(=O)NCCc1ccccc1)c1cccs1 (centres undefined),< 10,–,–
Cc1ncsc1-c1ccc([C@H](C)NC(=O)[C@@H]2C[C@@H](O)CN2C(=O)[C@@H](NC(=O)CCCCCCCC(=O)Nc2ccc(N(C(=O)CCl)C(C(=O)NCCc3ccccc3)c3cccs3)cc2)C(C)(C)C)cc1 (some centres undefined),21,–,–
Cc1ncsc1-c1ccc([C@@H](C)NC(=O)[C@@H]2C[C@@H](O)CN2C(=O)[C@@H](NC(=O)CCCCCC(=O)Nc2ccc(N(C(=O)CCl)C(C(=O)NCCc3ccccc3)c3cccs3)cc2)C(C)(C)C)cc1 (some centres undefined),< 10,–,–
COc1ccc(N(C(=O)CCl)C(C(=O)NCCc2ccccc2)c2ccc(NC(=O)CCOCCOCCNc3cccc4c3C(=O)N(C3CCC(=O)NC3=O)C4=O)cc2)cc1Cl (centres undefined),< 10,–,–
O=C1CCC(N2C(=O)c3cccc(NCCOCCOCCOCCC(=O)Nc4ccc(N(C(=O)CCl)C(C(=O)NCCc5ccccc5)c5cccs5)cc4)c3C2=O)C(=O)N1 (centres undefined),–,19.4,–
Cc1ncsc1-c1ccc([C@H](C)NC(=O)[C@@H]2C[C@@H](O)CN2C(=O)[C@@H](NC(=O)CCCCCCCCCC(=O)Nc2ccc(N(C(=O)CCl)C(C(=O)NCCc3ccccc3)c3cccs3)cc2)C(C)(C)C)cc1 (some centres undefined),< 10,–,–
O=C1CCC(N2C(=O)c3cccc(NCCOCCOCCOCCOCCC(=O)Nc4ccc(N(C(=O)CCl)C(C(=O)NCCc5ccccc5)c5cccs5)cc4)c3C2=O)C(=O)N1 (centres undefined),–,14.5,–
O=C(CCOCCNc1cccc2c1CN(C1CCC(=O)NC1=O)C2=O)NCCCC(=O)Nc1ccc(N(C(=O)CCl)C(C(=O)NCCc2ccccc2)c2cccs2)cc1 (centres undefined),–,< 10,–
